Source: patent publication US7973080B2 (Ambria Dermatology AB, priority 2003, dated 2011)

What was measured:
Test in all cases: MIC by standard blood agar dilution technique
S. pyogenes, group A = test system: S. pyogenes, group A
Description: (§1) The following bacteria were investigated: methicillin-resistant Staphylococcus aureus (MSRA), fucidic acid-resistant S. aureus, non-resistant S. pyogenes, coagulation-negative staphylococci (for resistance, see Table 1 below) vancomycin-resistant enterococci (Enterococcus CCUG van A and van B), non-resistant Escherichia coli, Acinetobacter resistant against cefadroxil, nitrofurantin, mecillinam, Serratia maltophilia resistant against most types of antibiotics, Enterobacter (for resistance, see Table 1 below; additionally resistant against cefadroxil and nitrofurantin), non-resistant α-streptococci, non-resistant Streptococcus Group G, Pseudomonas aeruginosa (for resistance, see Table 2 below). Inocula of 10^3 and 10^5 bacteria were used.

[1] = test system: coagulation-negative staphylococci
Description: as §1

Enterococcus = settings: MR fuc +
Description: as §1

Streptococcus group C = settings: inoculate size 10^3
Description: as §1

Acinetobacter = settings: inoculate size 10^3
Description: as §1

Alphastreptococci = settings: inoculate size 10^3
Description: as §1

Streptococcus group G = settings: Strepotocccus group G 912 × 1106; inoculate size 10^3
Description: as §1

OCCCCCO [pentane-1,5-diol]
MIC (% by weight of pentane-1,5-diol) (S. pyogenes, group A; group A 912 × 1090, inoculate size 10^3): 7.5 % by weight | MIC (% by weight of pentane-1,5-diol) (S. pyogenes, group A; group A 912 × 1115, inoculate size 10^3): 7.5 % by weight | MIC (% by weight of pentane-1,5-diol) (S. pyogenes, group A; group A 912 × 1119, inoculate size 10^3): 7.5 % by weight | MIC (% by weight of pentane-1,5-diol) (S. pyogenes, group A; group A 912 × 1121, inoculate size 10^3): 7.5 % by weight | MIC (% by weight of pentane-1,5-diol) (S. pyogenes, group A; group A 912 × 1131, inoculate size 10^3): 7.5 % by weight | MIC (% by weight of pentane-1,5-diol) ([1]; Coag.neg.staph. 900 × 5515, inoculate size 10^3, MR fuc +): 12.5 % by weight | MIC (% by weight of pentane-1,5-diol) ([1]; Coag.neg.staph. 900 × 5515, inoculate size 10^5, MR fuc +): 15.0 % by weight | MIC (% by weight of pentane-1,5-diol) ([1]; Coag.neg.staph. 900 × 5516, inoculate size 10^3, MR fuc −): 7.5 % by weight | MIC (% by weight of pentane-1,5-diol) ([1]; Coag.neg.staph. 900 × 5516, inoculate size 10^5, MR fuc −): 12.5 % by weight | MIC (% by weight of pentane-1,5-diol) ([1]; Coag.neg.staph. 900 × 5525, inoculate size 10^5, MR fuc −): 7.5 % by weight | MIC (% by weight of pentane-1,5-diol) ([1]; Coag.neg.staph. 900 × 5538, inoculate size 10^3, MR fuc −): 5.0 % by weight | MIC (% by weight of pentane-1,5-diol) ([1]; Coag.neg.staph. 900 × 5538, inoculate size 10^5, MR fuc −): 12.5 % by weight | MIC (% by weight of pentane-1,5-diol) ([1]; Coag.neg.staph. 900 × 5539, inoculate size 10^3, MR fuc −): 7.5 % by weight | MIC (% by weight of pentane-1,5-diol) ([1]; Coag.neg.staph. 900 × 5539, inoculate size 10^5, MR fuc −): 10.0 % by weight | MIC (% by weight of pentane-1,5-diol) ([1]; Coag.neg.staph. 902 × 14176 large, inoculate size 10^3, MR fuc −): 7.5 % by weight | MIC (% by weight of pentane-1,5-diol) ([1]; Coag.neg.staph. 902 × 14176 large, inoculate size 10^5, MR fuc −): 20.0 % by weight | MIC (% by weight of pentane-1,5-diol) ([1]; Coag.neg.staph. 902 × 14176 small, inoculate size 10^3, MR fuc +): 7.5 % by weight | MIC (% by weight of pentane-1,5-diol) ([1]; Coag.neg.staph. 902 × 14176 small, inoculate size 10^5, MR fuc +): 10.0 % by weight | MIC (% by weight of pentane-1,5-diol) ([1]; Coag.neg.staph. 904 × 2816, inoculate size 10^3, MR fuc +): 10.0 % by weight | MIC (% by weight of pentane-1,5-diol) ([1]; Coag.neg.staph. 904 × 2816, inoculate size 10^5, MR fuc +): 17.5 % by weight | MIC (% by weight of pentane-1,5-diol) ([1]; Coag.neg.staph. 916 × 8132, inoculate size 10^3, MR fuc −): 7.5 % by weight | MIC (% by weight of pentane-1,5-diol) ([1]; Coag.neg.staph. 916 × 8132, inoculate size 10^5, MR fuc −): 12.5 % by weight | MIC (% by weight of pentane-1,5-diol) ([1]; Coag.neg.staph. 916 × 8188, inoculate size 10^3, MR fuc −): 15.0 % by weight | MIC (% by weight of pentane-1,5-diol) ([1]; Coag.neg.staph. 916 × 8188, inoculate size 10^5, MR fuc −): 17.5 % by weight | MIC (% by weight of pentane-1,5-diol) (Enterococcus; Enterococcus 921 × 57002, inoculate size 10^3, van −, tri −): 7.5 % by weight | MIC (% by weight of pentane-1,5-diol) (Enterococcus; Enterococcus 921 × 57002, inoculate size 10^5, van −, tri −): 10.0 % by weight | MIC (% by weight of pentane-1,5-diol) (Enterococcus; Enterococcus 921 × 57022, inoculate size 10^3, van −, cip +, tri +): 5.0 % by weight | MIC (% by weight of pentane-1,5-diol) (Enterococcus; Enterococcus 921 × 57022, inoculate size 10^5, van −, cip +, tri +): 7.5 % by weight | MIC (% by weight of pentane-1,5-diol) (Enterococcus; Enterococcus 921 × 57057, inoculate size 10^3, van −, tri −): 7.5 % by weight | MIC (% by weight of pentane-1,5-diol) (Enterococcus; Enterococcus 921 × 57057, inoculate size 10^5, van −, tri −): 10.9 % by weight | MIC (% by weight of pentane-1,5-diol) (Enterococcus; Enterococcus 921 × 57093, inoculate size 10^3, van −, tri +): 7.5 % by weight | MIC (% by weight of pentane-1,5-diol) (Enterococcus; Enterococcus 921 × 57093, inoculate size 10^5, van −, tri +): 10.0 % by weight | MIC (% by weight of pentane-1,5-diol) (Enterococcus; Enterococcus 921 × 57158, inoculate size 10^3, van −, tri +): 7.5 % by weight | MIC (% by weight of pentane-1,5-diol) (Enterococcus; Enterococcus 921 × 57158, inoculate size 10^5, van −, tri +): 7.5 % by weight | MIC (% by weight of pentane-1,5-diol) (Enterococcus; Enterococcus CCUG 37593 vanB, inoculate size 10^3, van +): 5.0 % by weight | MIC (% by weight of pentane-1,5-diol) (Enterococcus; Enterococcus CCUG 37593 vanB, inoculate size 10^5, van +): 7.5 % by weight | MIC (% by weight of pentane-1,5-diol) (Enterococcus; Enterococcus CCUG 37832 vanA, inoculate size 10^3, van +): 5.0 % by weight | MIC (% by weight of pentane-1,5-diol) (Enterococcus; Enterococcus CCUG 37832 vanA, inoculate size 10^5, van +): 7.5 % by weight | MIC (% by weight of pentane-1,5-diol) (Enterococcus; Enterococcus CCUG 39128 vanA, inoculate size 10^3, van +): 5.0 % by weight | MIC (% by weight of pentane-1,5-diol) (Enterococcus; Enterococcus CCUG 39128 vanA, inoculate size 10^5, van +): 10.0 % by weight | MIC (% by weight of pentane-1,5-diol) (Enterococcus; Enterococcus CCUG 43324 vanA, inoculate size 10^3, van +): 7.5 % by weight | MIC (% by weight of pentane-1,5-diol) (Enterococcus; Enterococcus CCUG 43324 vanA, inoculate size 10^5, van +): 10.0 % by weight | MIC (% by weight of pentane-1,5-diol) (Streptococcus group C; Streptococcus group C 900 × 1618): 7.5 % by weight | MIC (% by weight of pentane-1,5-diol) (Streptococcus group C; Streptococcus group C 912 × 1114): 10.0 % by weight | MIC (% by weight of pentane-1,5-diol) (Streptococcus group C; Streptococcus group C 912 × 1185): 10.0 % by weight | MIC (% by weight of pentane-1,5-diol) (Acinetobacter; Acinetobacter 116 × 305): 5.0 % by weight | MIC (% by weight of pentane-1,5-diol) (Acinetobacter; Acinetobacter 117 × 217): 5.0 % by weight | MIC (% by weight of pentane-1,5-diol) (Acinetobacter; Acinetobacter 514 × 1224): 5.0 % by weight | MIC (% by weight of pentane-1,5-diol) (Acinetobacter; Acinetobacter 516 × 748): 2.5 % by weight | MIC (% by weight of pentane-1,5-diol) (Acinetobacter; Acinetobacter 921 × 16968): 5.0 % by weight | MIC (% by weight of pentane-1,5-diol) (Acinetobacter; Acinetobacter 921 × 113359): 2.5 % by weight | MIC (% by weight of pentane-1,5-diol) (Alphastreptococci; Alphastreptococci 912 × 1135): 7.5 % by weight | MIC (% by weight of pentane-1,5-diol) (Alphastreptococci; Alphastreptococci 912 × 1137): 5.0 % by weight | MIC (% by weight of pentane-1,5-diol) (Alphastreptococci; Alphastreptococci 912 × 1138): 5.0 % by weight | MIC (% by weight of pentane-1,5-diol) (Alphastreptococci; Alphastreptococci 912 × 1139): 7.5 % by weight | MIC (% by weight of pentane-1,5-diol) (Alphastreptococci; Alphastreptococci 912 × 1200): 7.5 % by weight | MIC (% by weight of pentane-1,5-diol) (Streptococcus group G): 7.5 % by weight
